Results taken from BindingDB's records for doi:10.1021/jm960597m (Division of Warner Lambert, 1997).
pEC50: −log10 of the molar value.

Experiment: Inhibition of [3H]thymidine uptake by Dopamine receptor D2

- pEC50: 8.55
Compound: c1ccc(N2CCN(CC[C@H]3CC[C@H](c4c[nH]c5ccccc54)CC3)CC2)nc1 [3-{4-[2-(4-Pyridin-2-yl-piperazin-1-yl)-ethyl]-cyclohexyl}-1H-indole]
